Source: US9670189B2, “Substituted condensed pyrimidine compounds” (GRÜNENTHAL GMBH, priority 2013, dated 2017)

Target: T1, human PDE4B1 (Homo sapiens, UniProt Q07343)
T1 construct: host or cells: Sf9 cells
Experiment: cAMP HTRF assay to determine the activity of hPDE4B1
Type: biochemical
Conditions: for inhibition at 1 µM: 1 μM test concentration, human recombinant PDE4B1, cAMP 40 nM, read-out: Inhibition at 1 μM test concentration [%] (Percentage inhibition of PDE4B); for IC50: measured according to the cAMP HTRF hPDE4B1 assay, read-out: PDE4B IC50
Protocol: cAMP HTRF® Assay to Determine the Activity of hPDE4B1
The inhibiting effect of the compounds on the enzyme activity of human PDE4B1 was measured by the quantification of 5′-adenosine monophosphate (5′-AMP), which is formed from 3′,5′-adenosine monophosphate (cAMP). Human recombinant enzyme, expressed in Sf9 cells, and the HTRF (homogeneous time-resolved fluorescence) detection method were used in the assay.
The test compound or water (control) was mixed with the human recombinant PDE4B1 enzyme (4.8 U) in a buffer consisting of 44.4 mM tris-HCl, 5.28 mM MgCl2, 2.64 mM DTT and 0.044% Tween 20 (pH 7.8). After adding the cAMP enzyme substrate (final concentration 40 nM) the mixture was incubated for 30 minutes at room temperature. Then a fluorescence acceptor (Dye2 marked with cAMP), a fluorescence donor (anti-cAMP antibody marked with a europium cryptate) and the non-specific phosphodiesterase inhibitor IBMX (3-isobutyl-1-methylxanthine; final concentration 1 mM) were added. After 60 minutes the fluorescence transfer, which correlates with the amount of remaining cAMP, was measured with a microplate reader (Rubystar, BMG) at λex=337 nm, λem=620 nm and λem=665 nm. The enzyme activity was calculated from the quotient formed from the measured signal at 665 nm and that at 620 nm. The result was expressed as the percentage inhibition of enzyme activity of the control (without PDE4 inhibitor) (literature: N. Saldou et al., Comparison of recombinant human PDE4 isoforms: interaction with substrate and inhibitors, Cell. Signal. Vol. 10, No. 6, 427-440, 1998). The enzyme was omitted for measurement of the basal control.

T1 sequence (Q07343 whole entry): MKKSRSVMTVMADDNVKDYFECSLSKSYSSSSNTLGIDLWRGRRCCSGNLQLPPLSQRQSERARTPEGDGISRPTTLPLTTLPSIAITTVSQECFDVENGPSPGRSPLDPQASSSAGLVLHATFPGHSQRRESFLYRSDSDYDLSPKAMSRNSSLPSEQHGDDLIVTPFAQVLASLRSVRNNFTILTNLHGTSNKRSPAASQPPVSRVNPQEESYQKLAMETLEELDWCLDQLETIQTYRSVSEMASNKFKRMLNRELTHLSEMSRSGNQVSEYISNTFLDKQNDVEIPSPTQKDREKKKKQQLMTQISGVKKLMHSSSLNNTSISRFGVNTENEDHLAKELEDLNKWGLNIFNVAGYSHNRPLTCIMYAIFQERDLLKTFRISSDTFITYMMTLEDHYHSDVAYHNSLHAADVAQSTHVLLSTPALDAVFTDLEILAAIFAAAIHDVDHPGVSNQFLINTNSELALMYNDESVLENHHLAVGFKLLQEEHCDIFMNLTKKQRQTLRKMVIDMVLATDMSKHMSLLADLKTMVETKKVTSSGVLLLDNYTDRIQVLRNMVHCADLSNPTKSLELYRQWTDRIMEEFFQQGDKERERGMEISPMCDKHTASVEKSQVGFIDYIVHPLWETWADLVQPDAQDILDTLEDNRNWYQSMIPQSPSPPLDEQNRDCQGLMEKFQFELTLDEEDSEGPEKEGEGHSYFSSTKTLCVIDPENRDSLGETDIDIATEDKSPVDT

| inhibition at 1 µM [%] | IC50 [nM] | Compound |
| --- | --- | --- |
| 79 | – | NC(=O)c1ccc(-c2nc3c(c(Oc4ccc(CC(=O)O)cc4)n2)CCC3)s1 [Compound 47, 2-(4-(2-(5-Carbamoylthiophen-2-yl)-6,7-dihydro-5H-cyclopenta[d]pyrimidin-4-yloxy)phenyl)acetic acid] |
| 65 | – | Cc1ccc(-c2nc3c(c(Oc4ccc(CC(=O)O)cc4)n2)CCC3)s1 [Compound 58, 2-(4-((2-(5-Methylthiophen-2-yl)-6,7-dihydro-5H-cyclopenta[d]pyrimidin-4-yl)oxy)phenyl)acetic acid] |
| 84 | – | O=C(O)c1ccc(Oc2nc(-c3ccc(Cl)s3)nc3c2CCC3)cc1 [Compound 8, 4-(2-(5-Chlorothiophen-2-yl)-6,7-dihydro-5H-cyclopenta[d]pyrimidin-4-yloxy)benzoic acid] |
| 62 | – | COc1ccc(-c2nc3c(c(Oc4ccc(C(=O)O)cc4)n2)CCC3)cc1F [Compound 4, 4-(2-(3-Fluoro-4-methoxyphenyl)-6,7-dihydro-5H-cyclopenta[d]pyrimidin-4-yloxy)benzoic acid] |
| 59 | – | O=C(O)Cc1ccc(Oc2nc(-c3ccc(Br)s3)nc3c2CCC3)cc1 [Compound 49, 2-(4-(2-(5-Bromothiophen-2-yl)-6,7-dihydro-5H-cyclopenta[d]pyrimidin-4-yloxy)phenyl)acetic acid] |
| 78 | – | N#Cc1ccc(-c2nc3c(c(Oc4ccc(CC(=O)O)cc4)n2)CCC3)s1 [Compound 48, 2-(4-(2-(5-Cyanothiophen-2-yl)-6,7-dihydro-5H-cyclopenta[d]pyrimidin-4-yloxy)phenyl)acetic acid] |
| 33 | – | O=C(O)Cc1ccc(Oc2nc(-c3ccc(Cl)s3)nc3c2CS(=O)(=O)CC3)cc1 [Compound 24, 2-[4-[[2-(5-Chloro-thiophen-2-yl)-6,6-dioxo-7,8-dihydro-5H-thiopyrano[4,3-d]pyrimidin-4-yl]oxy]-phenyl]-acetic acid] |
| 98 | < 100 | O=C(O)Cc1ccc(Oc2nc(-c3ccc(Cl)s3)nc3c2CSC3)cc1 [Compound 19, 2-(4-(2-(5-Chlorothiophen-2-yl)-5,7-dihydrothieno[3,4-d]pyrimidin-4-yloxy)phenyl)acetic acid] |
| 42 | – | O=C(O)Cc1ccc(Oc2nc(-c3cccc(Br)c3)nc3c2CCC3)cc1 [Compound 54, 2-(4-((2-(3-Bromophenyl)-6,7-dihydro-5H-cyclopenta[d]pyrimidin-4-yl)oxy)phenyl)acetic acid] |
| 55 | – | O=C(O)c1ccc(Oc2nc(-c3ccc(F)c(F)c3)nc3c2CCC3)cc1 [Compound 6, 4-(2-(3,4-Difluorophenyl)-6,7-dihydro-5H-cyclopenta[d]pyrimidin-4-yloxy)benzoic acid] |
| 75 | – | COc1ccc(-c2nc3c(c(Oc4ccc(CC(=O)O)cc4)n2)CCC3)cc1Cl [Compound 2, 2-(4-(2-(3-Chloro-4-methoxyphenyl)-6,7-dihydro-5H-cyclopenta[d]pyrimidin-4-yloxy)phenyl)acetic acid] |
| 84 | – | CSc1ccc(-c2nc3c(c(Oc4ccc(CC(=O)O)cc4)n2)CCC3)s1 [Compound 51, 2-(4-(2-(5-(Methylthio)thiophen-2-yl)-6,7-dihydro-5H-cyclopenta[d]pyrimidin-4-yloxy)phenyl)acetic acid] |
| 112 | < 100 | COc1ccc(-c2nc3c(c(Oc4ccc(CC(=O)O)cc4)n2)CS(=O)(=O)C3)cc1 [Compound 18, 2-[4-[[2-(4-Methoxyphenyl)-6,6-dioxo-5,7-dihydro-thieno[3,4-d]pyrimidin-4-yl]oxy]-phenyl]-acetic acid] |
| 71 | – | COc1ccc(-c2nc3c(c(Oc4ccc(C(=O)O)cc4)n2)CCC3)cc1Cl [Compound 5, 4-(2-(3-Chloro-4-methoxyphenyl)-6,7-dihydro-5H-cyclopenta[d]pyrimidin-4-yloxy)benzoic acid] |
| 77 | < 100 | O=C(O)Cc1ccc(Oc2nc(-c3ccc(Cl)s3)nc3c2CCC3)cc1 [Compound 7, 2-(4-(2-(5-Chlorothiophen-2-yl)-6,7-dihydro-5H-cyclopenta[d]pyrimidin-4-yloxy)phenyl)acetic acid] |
| 51 | – | O=C(O)Cc1ccc(Oc2nc(-c3ccc(Br)cc3)nc3c2CCC3)cc1 [Compound 53, 2-(4-((2-(4-Bromophenyl)-6,7-dihydro-5H-cyclopenta[d]pyrimidin-4-yl)oxy)phenyl)acetic acid] |

| inhibition at 1 µM [%] | IC50 [nM] | Compound |
| --- | --- | --- |
| 23 | – | O=C(O)Cc1ccc(Oc2nc(-c3ccc(Cl)s3)nc3c2CC(F)(F)CC3)cc1 [Compound 12, 2-(4-(2-(5-Chlorothiophen-2-yl)-6,6-difluoro-5,6,7,8-tetrahydroquinazolin-4-yloxy)phenyl)acetic acid] |
| 103 | < 100 | O=C(O)Cc1ccc(Oc2nc(-c3ccc(Cl)s3)nc3c2C[S+]([O-])C3)cc1 (stereo not drawn) [Compound 20, 2-[4-[[2-(5-Chloro-thiophen-2-yl)-6-oxo-5,7-dihydro-thieno[3,4-d]pyrimidin-4-yl]oxy]-phenyl]-acetic acid] |
| 95 | < 100 | COc1ccc(-c2nc3c(c(Oc4ccc(CC(=O)O)cc4)n2)CS(=O)(=O)C3)cc1Cl [Compound 17, 2-[4-[[2-(3-Chloro-4-methoxy-phenyl)-6,6-dioxo-5,7-dihydro-thieno[3,4-d]pyrimidin-4-yl]oxy]-phenyl]-acetic acid] |
| 47 | – | Cc1sc(-c2nc3c(c(Oc4ccc(CC(=O)O)cc4)n2)CCC3)cc1Br [Compound 50, 2-(4-(2-(4-Bromo-5-methylthiophen-2-yl)-6,7-dihydro-5H-cyclopenta[d]pyrimidin-4-yloxy)phenyl)acetic acid] |
| 74 | – | COc1ccc(-c2nc3c(c(Oc4ccc(CC(=O)O)cc4)n2)CCC3)cc1F [Compound 1, 2-(4-(2-(3-Fluoro-4-methoxyphenyl)-6,7-dihydro-5H-cyclopenta[d]pyrimidin-4-yloxy)phenyl)acetic acid] |
| 76 | – | O=C(O)Cc1ccc(Oc2nc(-c3cnc(Cl)s3)nc3c2CCC3)cc1 [Compound 46, 2-(4-(2-(2-Chlorothiazol-5-yl)-6,7-dihydro-5H-cyclopenta[d]pyrimidin-4-yloxy)phenyl)acetic acid] |
| 86 | < 100 | O=C(O)Cc1ccc(Oc2nc(-c3ccc(F)s3)nc3c2CS(=O)(=O)C3)cc1 [Compound 15, 2-[4-[[2-(5-Fluoro-thiophen-2-yl)-6,6-dioxo-5,7-dihydro-thieno[3,4-d]pyrimidin-4-yl]oxy]-phenyl]-acetic acid] |
| 53 | – | CS(=O)(=O)c1ccc(-c2nc3c(c(Oc4ccc(CC(=O)O)cc4)n2)CCC3)s1 [Compound 52, 2-(4-(2-(5-(Methylsulfonyl)thiophen-2-yl)-6,7-dihydro-5H-cyclopenta[d]pyrimidin-4-yloxy)phenyl)acetic acid] |
| 91 | < 100 | O=C(O)Cc1ccc(Oc2nc(-c3ccc(Cl)s3)nc3c2CS(=O)(=O)C3)cc1 [Compound 21, 2-[4-[[2-(5-Chloro-thiophen-2-yl)-6,6-dioxo-5,7-dihydro-thieno[3,4-d]pyrimidin-4-yl]oxy]-phenyl]-acetic acid] |
| 49 | – | O=C(O)Cc1ccc(Oc2nc(-c3ccc(Cl)s3)nc3c2CCCC3)cc1 [Compound 10, 2-(4-(2-(5-Chlorothiophen-2-yl)-5,6,7,8-tetrahydroquinazolin-4-yloxy)phenyl)acetic acid] |
| 89 | < 100 | COc1ccc(-c2nc3c(c(Oc4ccc(CC(=O)O)cc4)n2)CS(=O)(=O)C3)cc1F [Compound 16, 2-[4-[[2-(3-Fluoro-4-methoxy-phenyl)-6,6-dioxo-5,7-dihydro-thieno[3,4-d]pyrimidin-4-yl]oxy]-phenyl]-acetic acid] |
| 44 | – | O=C(O)c1ccc(Oc2nc(-c3ccc(Cl)s3)nc3c2CCCC3)cc1 [Compound 11, 4-(2-(5-Chlorothiophen-2-yl)-5,6,7,8-tetrahydroquinazolin-4-yloxy)benzoic acid] |
| 62 | – | CC1Cc2nc(-c3ccc(Cl)s3)nc(Oc3ccc(CC(=O)O)cc3)c2C1 (stereo not drawn) [Compound 59, 2-(4-((2-(5-Chlorothiophen-2-yl)-6-methyl-6,7-dihydro-5H-cyclopenta[d]pyrimidin-4-yl)oxy)phenyl)acetic acid] |
| 30 | – | O=C(O)Cc1ccc(Oc2nc(-c3ccc(F)c(F)c3)nc3c2CCC3)cc1 [Compound 3, 2-(4-(2-(3,4-Difluorophenyl)-6,7-dihydro-5H-cyclopenta[d]pyrimidin-4-yloxy)phenyl)acetic acid] |
| 18 | – | O=C(O)Cc1ccc(Oc2nc(-c3ccc(Cl)s3)nc3c2C[S+]([O-])CC3)cc1 (stereo not drawn) [Compound 23, 2-[4-[[2-(5-Chloro-thiophen-2-yl)-6-oxo-7,8-dihydro-5H-thiopyrano[4,3-d]pyrimidin-4-yl]oxy]-phenyl]-acetic acid] |
